Laboratory results reported in PMC9023165, “Antioxidant, Enzyme Inhibitory, and Molecular Docking Approaches to the Antidiabetic Potentials of Bioactive Compounds from Persicaria hydropiper L” (Evidence-based Complementary and Alternative Medicine : eCAM, 2022).
≈ marks a conversion by molar mass, not a printed value. Where two headings read alike, the source gives them in different places.

How the values were obtained:
α-amylase enzyme = target: T1, α-amylase enzyme (Sus scrofa, UniProt P00690); assay: α-amylase inhibition assay; type: biochemical; settings: Mean ± SEM
T1 sequence (P00690 16-511): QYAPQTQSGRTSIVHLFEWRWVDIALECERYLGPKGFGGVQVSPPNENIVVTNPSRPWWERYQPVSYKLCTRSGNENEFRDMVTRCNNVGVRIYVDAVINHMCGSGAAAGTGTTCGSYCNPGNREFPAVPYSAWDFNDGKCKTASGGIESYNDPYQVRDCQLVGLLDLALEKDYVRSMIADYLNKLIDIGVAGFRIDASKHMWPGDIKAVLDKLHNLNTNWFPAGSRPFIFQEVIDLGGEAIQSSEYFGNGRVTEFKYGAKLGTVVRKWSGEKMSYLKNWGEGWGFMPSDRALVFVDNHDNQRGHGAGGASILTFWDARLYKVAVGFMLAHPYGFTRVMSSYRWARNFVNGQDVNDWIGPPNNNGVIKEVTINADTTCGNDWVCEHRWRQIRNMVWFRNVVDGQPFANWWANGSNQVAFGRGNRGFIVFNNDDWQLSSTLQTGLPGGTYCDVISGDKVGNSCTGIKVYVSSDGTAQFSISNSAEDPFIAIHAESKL
Protocol: Using this assay, a previously reported protocol was followed. […] Subsequently, 100 µL of 0.5 mg·mL^−1α-amylase solution was added to the mixture and again incubated for 10 min at 25°C. Reaction was stopped via the addition of 200 µL of dinitrosalicylic acid was added and incubated for an additional 5 min in boiling water bath and allowed to cool again. Finally, 50 µL solutions was transferred to 96-well microplate reader and further diluted to 200 µL via the addition of distilled water. Absorbencies were recorded at 540 nm and percent inhibitions were calculated using the equation(4) % Inhibition=1−Δ A Samples/Δ A Control×100.

α-glucosidase enzyme = α-glucosidase enzyme (Saccharomyces cerevisiae, UniProt P53341); assay: α-glucosidase inhibition assay; type: biochemical
Protocol: For α-glucosidase inhibition assay, 50 µL solution containing 0.5 U·mL^−1 was added to 50 µL phosphate buffer (6.8 pH) and was added to various concentrations of test samples. The resultant mixture was properly mixed and stored at 37°C for fifteen min. After incubation, 100 µL (3 mM) pNPG solution was added to it. […] Absorption was measured at 405 nm using 96-well microplate reader. Absorption of mixture without addition of test samples was used as control and without substrate was used as blank. Percent inhibitions were calculated using the formula(3) % Inhibition=1−absorbance of sample−absorbance of blank/absorbance of control×100.

DPPH antiradicals assay = assay: DPPH antiradicals assay
Protocol: DPPH antiradicals study was conducted in accordance with our previously published protocol. Initially, 0.1% methanolic-DPPH solution was made and its 100 µL was mixed with same volume (100 µL) of test samples in 96-well plates, followed by incubation for about thirty min in a dark place 25 ± 3°C. […] Percent scavenging was estimated as follows:(1) % scavenging=A0−A1/A0×100.

ABTS antiradicals assay = assay: ABTS antiradicals assay
Protocol: ABTS antiradicals' study was performed following our earlier reported protocol. For preparation of ABTS solution, 192 mg of ABTS salt was mixed in distilled water with subsequent transfer to fifty-milliliter flask and volume adjustments. Thereafter, 1 mL of the previous solution was added to 17 µL of 140 mM potassium persulphate and the mixture was left in the dark for 24 hours. Subsequently, 1 mL of the reaction mixture was diluted to 50 mL using methanol to obtain the final ABTS dilution used in the assay. Consequently, 190-microliter ABTS solution was added to 10 µL sample solutions and in 96-well plates and were incubated for 2 hrs in dark place at room temperature. After the incubation, decline in color intensity of ABTS was measured at 734 nm via microplate reader. […] Percent ABTS scavenging was determined using equation:(2) %ABTS scavenging=Control absorbance−Sample absorbance/Control absorbance×100.

Sequence of α-glucosidase enzyme (P53341 whole entry): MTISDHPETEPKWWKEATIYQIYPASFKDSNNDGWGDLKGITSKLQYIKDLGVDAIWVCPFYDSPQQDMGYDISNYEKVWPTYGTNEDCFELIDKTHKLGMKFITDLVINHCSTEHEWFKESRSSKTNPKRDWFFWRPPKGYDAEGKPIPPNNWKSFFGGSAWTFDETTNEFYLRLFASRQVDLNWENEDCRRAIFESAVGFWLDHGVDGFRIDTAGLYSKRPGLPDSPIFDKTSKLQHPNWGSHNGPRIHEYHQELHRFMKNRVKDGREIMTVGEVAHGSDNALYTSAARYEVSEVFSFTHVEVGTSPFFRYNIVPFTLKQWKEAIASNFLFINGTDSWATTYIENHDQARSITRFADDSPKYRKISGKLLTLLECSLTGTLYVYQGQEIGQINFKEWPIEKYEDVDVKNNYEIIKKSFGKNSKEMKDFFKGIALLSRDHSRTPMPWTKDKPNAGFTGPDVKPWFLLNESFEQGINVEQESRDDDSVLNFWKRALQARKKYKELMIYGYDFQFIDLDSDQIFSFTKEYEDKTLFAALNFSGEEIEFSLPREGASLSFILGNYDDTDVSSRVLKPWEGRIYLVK

SMILES | IC50 DPPH scavenging (DPPH antiradicals assay) [µg/mL] | % scavenging effect against DPPH radicals (DPPH antiradicals assay; 31.25 µg·mL^−1) [%] | % scavenging effect against DPPH radicals (DPPH antiradicals assay; 62.50 µg·mL^−1) [%] | % scavenging effect against DPPH radicals (DPPH antiradicals assay; 125 µg·mL^−1) [%] | % scavenging effect against DPPH radicals (DPPH antiradicals assay; 250 µg·mL^−1) [%] | % scavenging effect against DPPH radicals (DPPH antiradicals assay; 500 µg·mL^−1) [%] | % scavenging effect against DPPH radicals (DPPH antiradicals assay; 1000 µg·mL^−1) [%] | IC50 against ABTS radicals (ABTS antiradicals assay) [µg/mL] | % inhibition against ABTS radicals (ABTS antiradicals assay; 1000 µg·mL^−1) [%] | also measured
C[C@H]1O[C@H](O[C@H]2[C@H](O)[C@@H](O)[C@@H](O[C@H]3[C@H](O)[C@@H](O)C(O)O[C@@H]3CO)O[C@@H]2CO)[C@H](O)[C@@H](O)[C@@H]1N[C@H]1C=C(CO)[C@@H](O)[C@H](O)[C@H]1O (stereo partly drawn) [Acarbose] | – | – | – | – | – | – | – | – | – | α-Amylase Inhibition assay % enzyme inhibition (α-amylase enzyme; 62.50 µg·mL^−1): 59.36 ± 0.57%; α-Amylase Inhibition assay % enzyme inhibition (α-amylase enzyme; 125 µg·mL^−1): 65.48 ± 0.74%; α-Amylase Inhibition assay % enzyme inhibition (α-amylase enzyme; 250 µg·mL^−1): 73.62 ± 0.40%; α-Amylase Inhibition assay % enzyme inhibition (α-amylase enzyme; 500 µg·mL^−1): 78.60 ± 0.46%; α-Amylase Inhibition assay % enzyme inhibition (α-amylase enzyme; 1000 µg·mL^−1): 85.72 ± 0.66%; α-Glucosidase inhibition assay % enzyme inhibition (α-glucosidase enzyme): 89.42 ± 0.55 77.52 ± 0.62 71. 36 ± 0.49 62.39 ± 0.49 55.47 ± 0.52%
CCC(/C=C/C(C)C1CCC2C3CC=C4CC(O)CCC4(C)C3CCC12C)C(C)C (stereo not drawn) [Ph-2, (E)-17-(5-ethyl-6-methylhept-3-en-2-yl)-10,13-dimethyl-2,3,4,7,8,9,10,11,12,13,14,15,16,17-tetradecahydro-1H-cyclopenta[a]phenanthren-3-ol] | 200 (≈ 485 µM) | 11.83 | 21.33 | 34.16 | 59.66 | 68 | 79.33 | 160 (≈ 388 µM) | 80.63 | % inhibition against ABTS radicals (ABTS antiradicals assay; 31.25 µg·mL^−1): 17.44%; % inhibition against ABTS radicals (ABTS antiradicals assay; 62.5 µg·mL^−1): 27.88%; % inhibition against ABTS radicals (ABTS antiradicals assay; 125 µg·mL^−1): 42.89%; % inhibition against ABTS radicals (ABTS antiradicals assay; 250 µg·mL^−1): 60.56%; % inhibition against ABTS radicals (ABTS antiradicals assay; 500 µg·mL^−1): 72.68%
CC(=O)OC1COC(=O)C1C (stereo not drawn) [Ph-3, 4-methyl-5-oxo-tetrahydrofuran-3-yl acetate] | 550 | 9.2 | 18.5 | 29.66 | 33.33 | 42 | 56 | 320 | 67.16 | –
COC(=O)c1ccc(O)c(OC)c1 [Ph-4, methyl 4-hydroxy-3-methoxybenzoate] | 650 (≈ 3570 µM) | 7.6 | 12.06 | 19.85 | 27.48 | 48.73 | 60.26 | 610 (≈ 3350 µM) | 53.66 | –
CCOc1cc(C(C)=O)c2cc(OC)ccc2c1 [Ph-5, 1-(3-ethoxy-7-methoxynaphthalen-1-yl)ethanone] | 390 (≈ 1600 µM) | – | – | – | – | – | 58.33 | 350 (≈ 1430 µM) | 69.16 | IC50 against ABTS radicals (ABTS antiradicals assay; in Figure 3): 390 µg/mL (≈ 1600 µM)
COc1cc(/C=C/c2ccccc2)oc(=O)c1 [Ph-6, (E)-4-methoxy-6-styryl-2H-pyran-2-one] | 910 (≈ 3990 µM) | – | – | – | – | – | 44 | 550 (≈ 2410 µM) | 61 | –
O=C1O[C@H]([C@@H](O)CO)C(O)=C1O [ascorbic acid, reference compound] | 40 (≈ 227 µM) | 45 | 56.83 | 62.33 | 72.85 | 83.33 | 91.80 | – | – | –
